Activity calls are given as the source filed them.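 The calls were made as follows: active = mean IC50 for reducing PEG3 promoter reporter signal at or below a set limit, with IC50 above the limit in both counter screens; inactive = the rest, including counter screen hits.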
Tests used:
[1] = tested on: GAPDH; assay: Peg3 promoter luciferase inhibitors, potency, dose response, cell-based, HeLa, CREF/GAPDH counter-screen panel (AID 624167); conditions: CREF/GAPDH counter-screens
[2] = biological target: PEG-3 (UniProt Q6IN02); assay: as above; conditions: HeLa PEG-Prom luciferase reporter, overnight, CREF/GAPDH counter-screens, mean of runs
Sequence of PEG-3 (UniProt Q6IN02) (Q6IN02 whole entry, looked up): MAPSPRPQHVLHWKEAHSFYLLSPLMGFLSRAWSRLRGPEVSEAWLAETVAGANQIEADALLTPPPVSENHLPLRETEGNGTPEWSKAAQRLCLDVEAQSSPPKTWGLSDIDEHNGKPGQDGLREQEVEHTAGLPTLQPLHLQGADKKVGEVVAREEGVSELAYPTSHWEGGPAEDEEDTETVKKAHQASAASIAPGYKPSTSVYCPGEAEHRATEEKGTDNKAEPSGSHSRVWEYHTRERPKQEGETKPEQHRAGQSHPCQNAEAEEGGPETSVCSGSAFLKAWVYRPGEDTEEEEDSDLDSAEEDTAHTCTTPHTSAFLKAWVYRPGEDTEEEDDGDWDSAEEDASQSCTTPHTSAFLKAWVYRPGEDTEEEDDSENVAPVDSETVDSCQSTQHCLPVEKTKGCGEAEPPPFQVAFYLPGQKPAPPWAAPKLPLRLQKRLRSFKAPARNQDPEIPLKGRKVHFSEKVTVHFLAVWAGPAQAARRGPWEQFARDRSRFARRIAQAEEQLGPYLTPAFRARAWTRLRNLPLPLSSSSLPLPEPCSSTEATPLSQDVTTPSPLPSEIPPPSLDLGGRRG

[3] = as above; conditions: CREF/GAPDH counter-screens; GAPDH; mean of runs
[4] = tested on: Rat fibroblasts (CREF); assay: as above; conditions: CREF/GAPDH counter-screens
[5] = tested on: PEG-3; assay: as above; conditions: HeLa PEG-Prom luciferase reporter, overnight, CREF/GAPDH counter-screens
[6] = run 1, dose range 1, individual replicate IC50 per panel
[7] = run 2, dose range 1, individual replicate IC50 per panel

Compound | IC50 [2] | IC50 [3] | IC50 [1, 6] | IC50 [1, 7] | IC50 ([4]; mean of runs) | IC50 [4, 6] | IC50 [4, 7] | IC50 [5, 6] | IC50 [5, 7]
CCN(CC)S(=O)(=O)c1cccc(C(=O)N/N=C(\C)c2ccc(O)cc2O)c1 | 2.05 µM | > 100 µM (inactive) | > 100 µM | > 100 µM | 74.1 µM (inactive) | > 100 µM | 48.2 µM | 2.77 µM | 1.33 µM
O=C(O)c1ccc(N/N=C/c2ccc3nccnc3c2)cc1 | 1.31 µM | 1.38 µM | 1.36 µM | 1.41 µM | > 100 µM (inactive) | > 100 µM | > 100 µM | 1.26 µM | 1.36 µM
Cc1ccc(C(C[N+](=O)[O-])Sc2ccc(N)cc2)cc1 (centres undefined) | 8.04 µM | 18.6 µM | 21.1 µM | 16.1 µM | 62.8 µM (inactive) | 25.6 µM | > 100 µM | 9.59 µM | 6.49 µM
CC(=O)c1cccc(-c2ccnc3c2CC(C(=O)Nc2cccc(NS(C)(=O)=O)c2)O3)c1 (centres undefined) | 5.6 µM | inactive | > 100 µM | 90.3 µM | > 100 µM (inactive) | > 100 µM | > 100 µM | 6.56 µM | 4.65 µM
CCCCCCCn1c(=N)n(CC(=O)c2ccco2)c2ccccc21 | inactive | inactive | 27 µM | 35 µM | 30.7 µM | 29.2 µM | 32.1 µM | 0.395 µM | > 100 µM
COCCCNC(=O)c1ccc(Cn2c(=O)c3ccccc3n(Cc3ccccc3C#N)c2=O)cc1 | 4.18 µM | > 100 µM (inactive) | > 100 µM | > 100 µM | > 100 µM (inactive) | > 100 µM | > 100 µM | 4.1 µM | 4.27 µM
CCCC(=O)NC(c1ccc(C(C)C)cc1)c1ccc2cccnc2c1O (centres undefined) | 1.38 µM | inactive | 26.2 µM | 85.1 µM | > 100 µM (inactive) | > 100 µM | > 100 µM | 1.94 µM | 0.814 µM
CCOC(=O)c1c(SCCN2CCCCC2)n(-c2ccccc2)c(=S)n(-c2ccccc2)c1=O | 7.28 µM | 18.8 µM | 18.8 µM | 18.8 µM | 13.6 µM | 12.9 µM | 14.4 µM | 10.1 µM | 4.4 µM

Continued, in another order:

IC50 [2] | IC50 [3] | Compound | IC50 [1, 6] | IC50 [1, 7] | IC50 ([4]; mean of runs) | IC50 [4, 6] | IC50 [4, 7] | IC50 [5, 6] | IC50 [5, 7]
6.59 µM | 10.9 µM | Cc1cc(Br)ccc1NC(=O)CNC(=O)Cn1ncc(Cl)c(Cl)c1=O | 10.1 µM | 11.8 µM | 54.2 µM (inactive) | 8.5 µM | > 100 µM | 8.31 µM | 4.87 µM
3.83 µM | > 100 µM (inactive) | Cc1cc(NC(c2ccc(Cl)cc2)c2ccc3cccnc3c2O)no1 (centres undefined) | > 100 µM | > 100 µM | 77.2 µM (inactive) | > 100 µM | 54.4 µM | 7.2 µM | 0.472 µM
0.673 µM | 5.17 µM | O=[N+]([O-])c1nn(-c2ccc3c(c2)OCCO3)n(O)c1=Nc1ccc(Cl)cc1 | 2.94 µM | 7.41 µM | > 100 µM (inactive) | > 100 µM | > 100 µM | 1.07 µM | 0.271 µM
0.703 µM | 2.86 µM | NC(C(=O)O)C1ON=C(Cl)C1O (centres undefined) | 0.927 µM | 4.8 µM | > 100 µM (inactive) | > 100 µM | > 100 µM | 0.639 µM | 0.767 µM
3.6 µM | > 100 µM (inactive) | O=C(NNC(=O)c1cccnc1SCc1cccc([N+](=O)[O-])c1)c1ccccn1 | > 100 µM | > 100 µM | 31.4 µM | 5.66 µM | 57.1 µM | 2.76 µM | 4.45 µM
7.38 µM | inactive | CS(=O)(=O)Nc1cccc(NC(=O)C2Cc3c(-c4ccccc4)ccnc3O2)c1 (centres undefined) | > 100 µM | 86.7 µM | > 100 µM (inactive) | > 100 µM | > 100 µM | 7.17 µM | 7.59 µM
5.91 µM | inactive | CN1C/C(=C/c2ccccc2[N+](=O)[O-])C(=O)/C(=C\c2ccccc2[N+](=O)[O-])C1 | > 100 µM | 79.4 µM | 27.4 µM | 30 µM | 24.9 µM | 5.67 µM | 6.14 µM
7.2 µM | inactive | CC(=O)c1ccc(-c2cnc3c(NC=O)cc(-c4ccccc4Oc4ccccc4)cn23)cc1 | 91.1 µM | > 100 µM | 54.5 µM (inactive) | > 100 µM | 8.93 µM | 5.46 µM | 8.94 µM

From PubChem BioAssay AID624167 (Sanford-Burnham Center for Chemical Genomics, 2012)
